From patent US10669284B2, “Fused thiazolopyrimidine derivatives as MNKS inhibitors” (LIFEARC, priority 2015, dated 2020)

What was measured:
[1] = target: BLK (Homo sapiens, UniProt P51451); assay: Kinase selectivity screen BLK; conditions: read-out: % inhibition of BLK
[2] = target: LCK (Homo sapiens, UniProt P06239); assay: Kinase selectivity screen LCK; conditions: read-out: % inhibition of LCK
[3] = target: STK10 (Homo sapiens, UniProt O94804); assay: Kinase selectivity screen STK10; conditions: read-out: % inhibition of STK10
STK10, sequence (O94804 whole entry, species assumed): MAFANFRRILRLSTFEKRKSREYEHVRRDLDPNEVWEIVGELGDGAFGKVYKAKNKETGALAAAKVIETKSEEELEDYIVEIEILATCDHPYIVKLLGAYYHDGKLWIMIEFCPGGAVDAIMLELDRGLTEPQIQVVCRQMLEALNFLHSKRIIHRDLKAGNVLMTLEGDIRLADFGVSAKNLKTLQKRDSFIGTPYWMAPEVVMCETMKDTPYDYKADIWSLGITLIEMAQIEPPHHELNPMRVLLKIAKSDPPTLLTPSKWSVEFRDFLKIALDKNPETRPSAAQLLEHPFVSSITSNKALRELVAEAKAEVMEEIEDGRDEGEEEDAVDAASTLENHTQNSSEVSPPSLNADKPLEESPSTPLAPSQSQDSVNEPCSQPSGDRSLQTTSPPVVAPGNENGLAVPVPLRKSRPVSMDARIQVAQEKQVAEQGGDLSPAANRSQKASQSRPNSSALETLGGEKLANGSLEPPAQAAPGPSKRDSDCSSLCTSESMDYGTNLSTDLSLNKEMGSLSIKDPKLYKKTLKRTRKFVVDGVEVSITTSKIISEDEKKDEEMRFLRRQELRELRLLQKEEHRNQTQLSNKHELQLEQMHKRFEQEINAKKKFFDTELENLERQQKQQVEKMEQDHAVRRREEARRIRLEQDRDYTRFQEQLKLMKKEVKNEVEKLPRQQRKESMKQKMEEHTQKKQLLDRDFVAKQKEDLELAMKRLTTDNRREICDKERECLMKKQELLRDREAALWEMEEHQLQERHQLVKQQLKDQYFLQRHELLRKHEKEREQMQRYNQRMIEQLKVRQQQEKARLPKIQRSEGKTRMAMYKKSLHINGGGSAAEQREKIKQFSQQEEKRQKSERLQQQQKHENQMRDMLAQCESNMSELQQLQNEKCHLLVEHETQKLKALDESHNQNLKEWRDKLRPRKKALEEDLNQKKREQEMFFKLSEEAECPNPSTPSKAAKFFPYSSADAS

[4] = target: T1, PRAK (Homo sapiens, UniProt Q8IW41); assay: Kinase selectivity screen PRAK; conditions: read-out: % inhibition of PRAK
T1 sequence (Q8IW41 1-473): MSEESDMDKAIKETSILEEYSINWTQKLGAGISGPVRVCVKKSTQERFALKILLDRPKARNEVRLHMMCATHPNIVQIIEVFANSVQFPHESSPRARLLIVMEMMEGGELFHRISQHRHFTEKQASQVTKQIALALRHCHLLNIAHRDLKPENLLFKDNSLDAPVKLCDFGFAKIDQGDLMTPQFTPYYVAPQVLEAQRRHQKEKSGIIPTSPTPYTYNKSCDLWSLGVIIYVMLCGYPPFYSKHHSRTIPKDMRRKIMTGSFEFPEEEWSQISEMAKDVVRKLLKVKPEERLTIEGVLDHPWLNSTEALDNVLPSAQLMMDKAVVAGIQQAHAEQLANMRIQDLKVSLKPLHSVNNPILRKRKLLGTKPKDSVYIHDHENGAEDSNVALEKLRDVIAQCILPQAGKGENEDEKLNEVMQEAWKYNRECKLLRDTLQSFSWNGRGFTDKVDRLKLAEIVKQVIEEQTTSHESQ

[5] = target: T2, PRKCE (Homo sapiens, UniProt Q02156); assay: Kinase selectivity screen PRKCE; conditions: read-out: % inhibition of PRKCE
T2 sequence (Q02156 1-737): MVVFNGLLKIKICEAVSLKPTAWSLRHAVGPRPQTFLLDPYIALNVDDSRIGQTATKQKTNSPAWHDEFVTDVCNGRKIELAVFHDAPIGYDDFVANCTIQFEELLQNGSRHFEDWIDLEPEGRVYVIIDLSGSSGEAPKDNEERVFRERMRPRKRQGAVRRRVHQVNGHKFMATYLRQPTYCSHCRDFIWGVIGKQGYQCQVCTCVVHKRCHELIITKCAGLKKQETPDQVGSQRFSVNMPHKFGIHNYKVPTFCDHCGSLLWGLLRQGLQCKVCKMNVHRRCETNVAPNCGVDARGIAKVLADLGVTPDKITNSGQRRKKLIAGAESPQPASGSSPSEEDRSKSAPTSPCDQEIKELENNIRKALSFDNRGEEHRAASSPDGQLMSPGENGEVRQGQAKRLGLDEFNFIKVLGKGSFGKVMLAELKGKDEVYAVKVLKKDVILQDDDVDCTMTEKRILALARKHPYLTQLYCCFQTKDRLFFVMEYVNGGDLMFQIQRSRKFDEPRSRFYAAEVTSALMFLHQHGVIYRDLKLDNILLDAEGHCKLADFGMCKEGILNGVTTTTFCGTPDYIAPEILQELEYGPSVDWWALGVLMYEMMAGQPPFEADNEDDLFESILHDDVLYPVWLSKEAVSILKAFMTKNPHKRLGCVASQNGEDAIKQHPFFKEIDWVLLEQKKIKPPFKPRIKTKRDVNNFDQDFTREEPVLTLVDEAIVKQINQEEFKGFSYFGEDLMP

[6] = target: NTRK1 (Homo sapiens, UniProt P04629); assay: Kinase selectivity screen NTRK1; conditions: read-out: % inhibition of NTRK1
NTRK1, sequence (P04629 33-796, species assumed): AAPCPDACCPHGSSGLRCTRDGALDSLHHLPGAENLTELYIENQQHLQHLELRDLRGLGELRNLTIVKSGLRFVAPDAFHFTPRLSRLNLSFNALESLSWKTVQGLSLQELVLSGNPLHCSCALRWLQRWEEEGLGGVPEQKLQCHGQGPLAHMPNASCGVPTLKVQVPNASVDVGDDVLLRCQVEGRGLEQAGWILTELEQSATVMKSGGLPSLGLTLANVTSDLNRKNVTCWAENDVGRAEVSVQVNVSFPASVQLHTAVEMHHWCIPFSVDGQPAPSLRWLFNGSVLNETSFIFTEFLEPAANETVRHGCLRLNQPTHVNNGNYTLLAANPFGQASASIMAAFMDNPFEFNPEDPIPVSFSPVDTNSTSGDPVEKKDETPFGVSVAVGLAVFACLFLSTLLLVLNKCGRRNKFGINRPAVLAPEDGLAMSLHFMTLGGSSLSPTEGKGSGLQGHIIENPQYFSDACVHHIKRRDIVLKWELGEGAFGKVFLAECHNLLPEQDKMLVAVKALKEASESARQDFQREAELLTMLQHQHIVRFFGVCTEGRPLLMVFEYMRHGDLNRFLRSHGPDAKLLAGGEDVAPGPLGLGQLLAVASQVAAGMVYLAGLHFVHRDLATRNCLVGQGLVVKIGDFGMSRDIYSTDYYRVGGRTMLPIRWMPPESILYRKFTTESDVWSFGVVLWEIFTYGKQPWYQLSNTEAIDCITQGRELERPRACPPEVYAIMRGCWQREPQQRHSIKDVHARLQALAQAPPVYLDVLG

[7] = target: MAP3K9 (Homo sapiens, UniProt P80192); assay: Kinase selectivity screen MAP3K9; conditions: read-out: % inhibition of MAP3K9
MAP3K9, sequence (P80192 whole entry, species assumed): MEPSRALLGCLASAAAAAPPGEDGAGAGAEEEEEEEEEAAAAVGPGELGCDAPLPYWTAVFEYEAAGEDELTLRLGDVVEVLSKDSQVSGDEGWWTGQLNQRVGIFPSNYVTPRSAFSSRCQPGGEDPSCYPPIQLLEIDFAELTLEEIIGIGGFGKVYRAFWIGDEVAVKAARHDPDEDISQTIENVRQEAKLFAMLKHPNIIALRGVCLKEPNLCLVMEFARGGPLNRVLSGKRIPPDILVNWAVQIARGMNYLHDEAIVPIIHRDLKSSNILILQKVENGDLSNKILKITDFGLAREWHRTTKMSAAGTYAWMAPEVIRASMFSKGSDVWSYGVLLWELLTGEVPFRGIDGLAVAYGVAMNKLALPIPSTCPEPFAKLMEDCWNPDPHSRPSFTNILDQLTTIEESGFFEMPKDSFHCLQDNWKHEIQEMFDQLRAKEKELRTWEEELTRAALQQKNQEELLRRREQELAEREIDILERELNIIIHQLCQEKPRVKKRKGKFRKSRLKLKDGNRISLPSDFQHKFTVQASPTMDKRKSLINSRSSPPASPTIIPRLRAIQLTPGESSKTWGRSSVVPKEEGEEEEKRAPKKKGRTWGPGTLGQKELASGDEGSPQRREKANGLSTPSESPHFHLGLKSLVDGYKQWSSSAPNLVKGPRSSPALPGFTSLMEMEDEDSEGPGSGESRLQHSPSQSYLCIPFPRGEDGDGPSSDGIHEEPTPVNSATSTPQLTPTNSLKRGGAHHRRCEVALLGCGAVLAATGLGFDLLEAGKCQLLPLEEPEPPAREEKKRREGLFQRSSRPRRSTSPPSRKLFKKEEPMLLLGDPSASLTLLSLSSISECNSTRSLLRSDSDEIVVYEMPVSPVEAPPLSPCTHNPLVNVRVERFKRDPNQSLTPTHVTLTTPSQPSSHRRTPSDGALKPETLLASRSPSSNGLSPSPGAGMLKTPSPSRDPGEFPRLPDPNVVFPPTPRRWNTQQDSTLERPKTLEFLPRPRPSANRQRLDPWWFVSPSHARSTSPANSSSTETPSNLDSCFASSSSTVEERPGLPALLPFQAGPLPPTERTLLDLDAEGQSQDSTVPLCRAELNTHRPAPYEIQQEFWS

[8] = target: T3, ACVR1B (Homo sapiens, UniProt P36896); assay: Kinase selectivity screen ACVR1B; conditions: read-out: % inhibition of ACVR1B
T3 sequence (P36896 24-505): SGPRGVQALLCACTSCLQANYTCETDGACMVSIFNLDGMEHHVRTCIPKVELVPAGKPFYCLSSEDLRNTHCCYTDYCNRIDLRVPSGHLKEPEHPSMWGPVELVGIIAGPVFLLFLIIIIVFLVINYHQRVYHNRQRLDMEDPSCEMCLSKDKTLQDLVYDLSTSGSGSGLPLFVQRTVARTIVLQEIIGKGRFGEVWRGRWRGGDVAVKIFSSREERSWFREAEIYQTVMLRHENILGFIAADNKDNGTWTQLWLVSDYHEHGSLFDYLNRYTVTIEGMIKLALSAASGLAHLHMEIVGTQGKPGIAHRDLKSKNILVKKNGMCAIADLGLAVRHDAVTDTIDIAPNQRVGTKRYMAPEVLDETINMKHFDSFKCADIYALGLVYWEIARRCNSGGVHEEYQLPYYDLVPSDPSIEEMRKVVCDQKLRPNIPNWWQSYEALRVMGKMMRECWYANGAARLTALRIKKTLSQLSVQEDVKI

BLK, sequence (P51451 whole entry, species assumed): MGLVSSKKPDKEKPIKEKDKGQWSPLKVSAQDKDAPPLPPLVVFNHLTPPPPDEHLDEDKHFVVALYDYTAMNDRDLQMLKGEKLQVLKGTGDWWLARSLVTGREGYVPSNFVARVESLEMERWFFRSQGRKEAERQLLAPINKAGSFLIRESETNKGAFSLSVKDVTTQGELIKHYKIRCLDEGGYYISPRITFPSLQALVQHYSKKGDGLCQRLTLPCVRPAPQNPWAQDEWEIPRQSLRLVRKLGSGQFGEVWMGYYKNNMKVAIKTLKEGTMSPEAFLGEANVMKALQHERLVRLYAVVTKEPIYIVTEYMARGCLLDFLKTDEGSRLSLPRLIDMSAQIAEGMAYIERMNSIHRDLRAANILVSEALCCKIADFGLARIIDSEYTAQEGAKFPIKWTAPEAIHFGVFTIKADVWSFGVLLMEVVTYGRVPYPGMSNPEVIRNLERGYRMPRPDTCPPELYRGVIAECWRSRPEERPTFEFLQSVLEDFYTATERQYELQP
LCK, sequence (P06239 whole entry, species assumed): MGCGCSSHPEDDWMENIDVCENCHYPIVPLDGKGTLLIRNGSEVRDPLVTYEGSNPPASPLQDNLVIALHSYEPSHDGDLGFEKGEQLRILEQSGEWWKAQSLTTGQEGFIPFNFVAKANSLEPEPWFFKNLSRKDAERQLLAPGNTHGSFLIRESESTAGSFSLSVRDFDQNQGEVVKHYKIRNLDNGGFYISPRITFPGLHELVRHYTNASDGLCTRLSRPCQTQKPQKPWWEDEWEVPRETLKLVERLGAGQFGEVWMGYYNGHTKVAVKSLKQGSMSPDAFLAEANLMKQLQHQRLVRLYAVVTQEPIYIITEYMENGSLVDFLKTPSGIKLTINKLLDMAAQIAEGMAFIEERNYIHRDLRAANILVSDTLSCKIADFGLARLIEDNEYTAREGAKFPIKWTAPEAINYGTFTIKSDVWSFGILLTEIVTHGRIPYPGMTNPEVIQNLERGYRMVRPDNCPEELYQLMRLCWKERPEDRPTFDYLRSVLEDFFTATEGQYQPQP

| SMILES | inhibition at 1 µM [1] | inhibition at 1 µM [2] | inhibition at 1 µM [3] | inhibition at 1 µM [4] | inhibition at 1 µM [5] | inhibition at 1 µM [6] | inhibition at 1 µM [7] | inhibition at 1 µM [8] |
| --- | --- | --- | --- | --- | --- | --- | --- | --- |
| CC(C)Oc1cc(F)ccc1Nc1ncnc2sc(C(=O)NCC3CCNCC3)nc12 [Example 10, 7-(4-fluoro-2-isopropoxy-anilino)-N-(4-piperidylmethyl)thiazolo[5,4-d]pyrimidine-2-carboxamide] | 18% | 12% | 28% | 0% | 4% | 10% | 11% | 6% |
| CN(C)CCCNC(=O)c1nc2c(N3CCc4cc(F)ccc43)ncnc2s1 [Example 64, N-[3-(dimethylamino)propyl]-7-(5-fluoroindolin-1-yl)thiazolo[5,4-d]pyrimidine-2-carboxamide] | 1% | 0% | 81% | 0% | 0% | 5% | 1% | 15% |
| O=C(NCC1CCNCC1)c1nc2c(N3CCc4cc(F)ccc43)ncnc2s1 [Example 58, 7-(5-fluoroindolin-1-yl)-N-(4-piperidylmethyl)thiazolo[5,4-d]pyrimidine-2-carboxamide] | 0% | 0% | 71% | 0% | 0% | 0% | 24% | 0% |
